Measured values as given in US5455222A, “1-substituted-5-thiomethylthiocyanato-1H-tetrazoles, compositions containing them and their use as antimicrobial and marine antifouling agents” (The Dow Chemical Company, priority 1994, dated 1995).
Converted amounts (≈) assume the structure as drawn.

Assays:
[1] = test system: Pseudomonas aeruginosa (PRD-10); assay: Minimum inhibitory concentration (MIC), bacteria in nutrient agar; format: cell-based, Pseudomonas aeruginosa ATCC 15442; settings: 48 hours
Procedure: (§1) The minimum inhibitory concentration (MIC) for the compounds listed in Table I is determined for 9 bacteria, using nutrient agar, and 7 yeast and fungi, using malt yeast agar. A one percent solution of the test compound is prepared in a mixture of acetone and water.
(§2) Nutrient agar is prepared at pH 6.8, representing a neutral medium, and at pH 8.2, representing an alkaline medium. The nutrient agars are prepared by adding 23 g of nutrient agar to one liter of deionized water. In addition, the alkaline medium is prepared by adjusting a 0.04M solution of N-[tris-(hydroxymethyl)methyl]glycine buffered deionized water with concentrated sodium hydroxide to a pH of 8.5.
(§3) The test tubes containing the agar are cooled in a water bath until the temperature of the agar is 48° C. Then, an appropriate amount of the one percent solution of the test compound is added (except in the controls where no compound is added) to the respective test tubes so that the final concentrations are 500, 250, 100, 50, 25, 10, 5, 2.5, 1.0 and zero parts per million of the test compound in the agar, thus having a known concentration of test compound dispersed therein. The contents of the test tubes are then transferred to respective petri plates. After drying for 24 hours, the petri plates containing nutrient agar are inoculated with bacteria and those containing malt yeast agar are inoculated with yeast and fungi.
(§4) The inoculation with bacteria is accomplished by using the following procedure. Twenty-four hour-cultures of each of the bacteria are prepared by incubating the respective bacteria in tubes containing nutrient broth for 24 hours at 30° C. in a shaker. Dilutions of each of the 24 hour-cultures are made so that nine separate suspensions (one for each of the nine test bacteria) are made, each containing 10^8 colony forming units (CFU) per mL of suspension of a particular bacteria. Aliquots of 0.3 mL of each of the bacterial suspensions are used to fill the individual wells of Steer's Replicator. For each microbial suspension, 0.3 mL was used to fill three wells (i.e., three wells of 0.3 mL each) so that for the nine different bacteria, 27 wells are filled. The Steer's Replicator is then used to inoculate both the neutral and alkaline pH nutrient agar petri plates.
(§5) The inoculated petri plates are incubated at 30° C. for 48 hours and then read to determine if the test compound which is incorporated into the agar prevented growth of the respective bacteria.
(§6) Table II lists the bacteria, yeast and fungi used in the MIC test described above along with their respective American Type Culture Collection (ATCC) identification numbers.
(§7) In Tables III and IV, the MIC values of the compounds described in Table I as compared to the MIC of a standard commercial preservative (with 1-(3-chloroallyl)-3,5,7-triaza-1-azoniaadamantane chloride as the active agent and referred to in Tables III and IV as "STANDARD I") are set forth for the bacteria organisms and yeast/fungi organisms which are listed in Table II.

[2] = test system: Proteus vulgaris (Pv); assay: as above; format: cell-based, Proteus vulgaris ATCC 881; settings: 48 hours
Procedure: as §1, §2, §3, §4, §5, §6, §7

[3] = test system: Penicillium chrysogenum (Pc); assay: Minimum inhibitory concentration (MIC), yeast/fungi in malt yeast agar; format: cell-based, Penicillium chrysogenum ATCC 9480; settings: 30° C., 72 hours for fungi
Procedure: as §1
(§8) Malt yeast agar is prepared by adding 3 g yeast extract and 45 g malt agar per liter of deionized water. The specific agar is dispensed in 30 mL aliquots into 25×200 mm test tubes, capped and autoclaved for 15 minutes at 115° C.
as §3
(§9) The inoculation with the yeast and fungi is accomplished as follows. Cultures of yeast and fungi are incubated for seven days on malt yeast agar at 30° C. These cultures are used to prepare suspensions by the following procedure. A suspension of each organism is prepared by adding 10 mL of sterile saline and 10 microliters of octylphenoxy polyethoxy ethanol to the agar slant of yeast or fungi. The sterile saline/octylphenoxy polyethoxy ethanol solution is then agitated with a sterile swab to suspend the microorganism grown on the slant. Each resulting suspension is diluted into sterile saline (1 part suspension to 9 parts sterile saline). Aliquots of these dilutions are placed in individual wells of Steer's Replicator and petri plates inoculated as previously described. The petri plates are incubated at 30° C. and read after 48 hours for yeast and 72 hours for fungi.
as §6, §7

[4] = test system: Candida albicans (Ca); assay: as above; format: cell-based, Candida albicans ATCC 10231; settings: 30° C., 48 hours for yeast
Procedure: as §1, §8, §3, §9, §6, §7

[5] = test system: Salmonella choleraesuis (Sc); assay: Minimum inhibitory concentration (MIC), bacteria in nutrient agar; format: cell-based, Salmonella choleraesuis ATCC 10708; settings: Salmonella enterica, 48 hours
Procedure: as §1, §2, §3, §4, §5, §6, §7

[6] = test system: Saccharomyces cerevisiae (Sc); assay: Minimum inhibitory concentration (MIC), yeast/fungi in malt yeast agar; format: cell-based, Saccharomyces cerevisiae ATCC 4105; settings: 30° C., 48 hours for yeast
Procedure: as §1, §8, §3, §9, §6, §7

[7] = test system: Fusarium oxysporum (Fo); assay: as above; format: cell-based, Fusarium oxysporum ATCC 48112; settings: 30° C., 72 hours for fungi
Procedure: as §1, §8, §3, §9, §6, §7

[8] = test system: Trichoderma viride (Tv); assay: as above; format: cell-based, Trichoderma viride ATCC 8678; settings: 30° C., 72 hours for fungi
Procedure: as §1, §8, §3, §9, §6, §7

[9] = test system: Aureobasidium pullulan (Ap); assay: as above; format: cell-based, Aureobasidium pullulan ATCC 16622; settings: 30° C., read after 48 hours for yeast and 72 hours for fungi
Procedure: as §1, §8, §3, §9, §6, §7

[10] = test system: Escherichia coli (Ec); assay: Minimum inhibitory concentration (MIC), bacteria in nutrient agar; format: cell-based, Escherichia coli ATCC 11229; settings: 48 hours
Procedure: as §1, §2, §3, §4, §5, §6, §7

[11] = test system: Bacillus subtilis (Bs); assay: as above; format: cell-based, Bacillus subtilis ATCC 8473; settings: 48 hours
Procedure: as §1, §2, §3, §4, §5, §6, §7

Work on `N#CSCSc1nnnn1-c1cccc(Cl)c1` [II, 1-(3-Chlorophenyl)-5-thiomethylthiocyanato-1H-tetrazole] yielded an MIC ([1]; nutrient agar pH 6.8, 30° C.) of 500 µg/mL (≈ 1760 µM), an MIC ([1]; nutrient agar pH 8.2, 30° C.) of 250 µg/mL (≈ 881 µM) and an MIC ([2]; nutrient agar pH 6.8, 30° C.) of 100 µg/mL (≈ 352 µM). For the same molecule, the MIC ([2]; nutrient agar pH 8.2, 30° C.) was 250 µg/mL (≈ 881 µM), the MIC [3] was < 10 µg/mL and the MIC [4] was < 10 µg/mL. The MIC ([5]; nutrient agar pH 6.8, 30° C.) was 500 µg/mL (≈ 1760 µM), the MIC ([5]; nutrient agar pH 8.2, 30° C.) was 500 µg/mL (≈ 1760 µM) and the MIC [6] was < 10 µg/mL. For the same molecule, the MIC [7] was < 10 µg/mL, the MIC [8] was 25 µg/mL (≈ 88.1 µM) and the MIC [9] was < 10 µg/mL. It also gave an MIC ([10]; nutrient agar pH 6.8, 30° C.) of 500 µg/mL (≈ 1760 µM), an MIC ([10]; nutrient agar pH 8.2, 30° C.) of 500 µg/mL (≈ 1760 µM) and an MIC ([11]; nutrient agar pH 6.8, 30° C.) of 100 µg/mL (≈ 352 µM). For the same molecule, the MIC ([11]; nutrient agar pH 8.2, 30° C.) was 250 µg/mL (≈ 881 µM).
For `N#CSCSc1nnnn1-c1ccc(Cl)cc1` [III, 1-(4-Chlorophenyl)-5-thiomethylthiocyanato-1H-tetrazole], the MIC ([1]; nutrient agar pH 6.8, 30° C.) was 25 µg/mL (≈ 88.1 µM), the MIC ([1]; nutrient agar pH 8.2, 30° C.) was 50 µg/mL (≈ 176 µM) and the MIC ([2]; nutrient agar pH 6.8, 30° C.) was 25 µg/mL (≈ 88.1 µM). The MIC ([2]; nutrient agar pH 8.2, 30° C.) was 100 µg/mL (≈ 352 µM), the MIC [3] was < 1 µg/mL and the MIC [4] was 5 µg/mL (≈ 17.6 µM). For the same molecule, the MIC ([5]; nutrient agar pH 6.8, 30° C.) was 25 µg/mL (≈ 88.1 µM), the MIC ([5]; nutrient agar pH 8.2, 30° C.) was 100 µg/mL (≈ 352 µM) and the MIC [6] was 2.5 µg/mL (≈ 8.81 µM). It also gave an MIC [7] of 2.5 µg/mL (≈ 8.81 µM), an MIC [8] of 5 µg/mL (≈ 17.6 µM) and an MIC [9] of 2.5 µg/mL (≈ 8.81 µM). The MIC ([10]; nutrient agar pH 6.8, 30° C.) was 25 µg/mL (≈ 88.1 µM), the MIC ([10]; nutrient agar pH 8.2, 30° C.) was 250 µg/mL (≈ 881 µM) and the MIC ([11]; nutrient agar pH 6.8, 30° C.) was < 10 µg/mL. For the same molecule, the MIC ([11]; nutrient agar pH 8.2, 30° C.) was 50 µg/mL (≈ 176 µM).
With `Cc1cccc(-n2nnnc2SCSC#N)c1` [VI, 1-(3-Methylphenyl)-5-thiomethylthiocyanato-1H-tetrazole] the MIC ([1]; nutrient agar pH 6.8, 30° C.) was 500 µg/mL (≈ 1900 µM), the MIC ([1]; nutrient agar pH 8.2, 30° C.) was 500 µg/mL (≈ 1900 µM) and the MIC ([2]; nutrient agar pH 6.8, 30° C.) was 100 µg/mL (≈ 380 µM). For the same molecule, the MIC ([2]; nutrient agar pH 8.2, 30° C.) was 100 µg/mL (≈ 380 µM), the MIC [3] was < 1 µg/mL and the MIC [4] was 5 µg/mL (≈ 19 µM). For the same molecule, the MIC ([5]; nutrient agar pH 6.8, 30° C.) was 500 µg/mL (≈ 1900 µM), the MIC ([5]; nutrient agar pH 8.2, 30° C.) was 500 µg/mL (≈ 1900 µM) and the MIC [6] was < 1 µg/mL. For the same molecule, the MIC [7] was < 1 µg/mL, the MIC [8] was 25 µg/mL (≈ 94.9 µM) and the MIC [9] was < 1 µg/mL. The MIC ([10]; nutrient agar pH 6.8, 30° C.) was 500 µg/mL (≈ 1900 µM), the MIC ([10]; nutrient agar pH 8.2, 30° C.) was 500 µg/mL (≈ 1900 µM) and the MIC ([11]; nutrient agar pH 6.8, 30° C.) was < 10 µg/mL. The MIC ([11]; nutrient agar pH 8.2, 30° C.) was 25 µg/mL (≈ 94.9 µM).
For `N#CSCSc1nnnn1C1CCCCC1` [X, 1-(Cyclohexyl)-5-thiomethylthiocyanato-1H-tetrazole], the MIC ([1]; nutrient agar pH 6.8, 30° C.) was 500 µg/mL (≈ 1960 µM), the MIC ([1]; nutrient agar pH 8.2, 30° C.) was 500 µg/mL (≈ 1960 µM) and the MIC ([2]; nutrient agar pH 6.8, 30° C.) was 250 µg/mL (≈ 979 µM). For the same molecule, the MIC ([2]; nutrient agar pH 8.2, 30° C.) was 250 µg/mL (≈ 979 µM), the MIC [3] was < 1 µg/mL and the MIC [4] was 50 µg/mL (≈ 196 µM). It also gave an MIC ([5]; nutrient agar pH 6.8, 30° C.) of 250 µg/mL (≈ 979 µM), an MIC ([5]; nutrient agar pH 8.2, 30° C.) of 500 µg/mL (≈ 1960 µM) and an MIC [6] of 5 µg/mL (≈ 19.6 µM). For the same molecule, the MIC [7] was 5 µg/mL (≈ 19.6 µM), the MIC [8] was 50 µg/mL (≈ 196 µM) and the MIC [9] was < 1 µg/mL. The MIC ([10]; nutrient agar pH 6.8, 30° C.) was 250 µg/mL (≈ 979 µM), the MIC ([10]; nutrient agar pH 8.2, 30° C.) was 500 µg/mL (≈ 1960 µM) and the MIC ([11]; nutrient agar pH 6.8, 30° C.) was < 10 µg/mL. It also gave an MIC ([11]; nutrient agar pH 8.2, 30° C.) of 25 µg/mL (≈ 97.9 µM).
